According to patent US11213563B2, “Polypeptide and use thereof” (Genoimmune Therapeutics Co., Ltd., priority 2016, dated 2022):

What was measured:
CD8^+ T cells = experiment: IFN-γ ELISPOT of CD8+ T cell immune response activated by polypeptide; assay type: cell-based, human; settings: for Conclusion (immunogenicity): ELISPOT spot ratio >2 criterion; for Number of spots produced by mutant polypeptide or each of its variants / Number of spots produced by wild-type polypeptide: IFN-γ ELISPOT, T cells activated by the listed polypeptide; for Number of spots produced by mutant polypeptide or each of its variants: T2 cells loaded with mutant polypeptide; for Number of spots produced by wild-type polypeptide: T2 cells loaded with wild-type polypeptide FILDGSYSV; for Ratio of mutant polypeptide to wild-type polypeptide: spot number ratio, >2 indicates immunogenicity
Source text: The mutant polypeptide with immunogenicity should meet the following requirement:
Spots number of mutant polypeptide/spots number of wild-type polypeptide>2,
After specifically recognizing the complex of HLA-A0201 and the mutant polypeptide, the polypeptide specific-CD8^+T cell is activated and secretes IFN-γ, which will be captured by the firstly antibody coated on the ELISPOT plate and further be bound by an enzyme-coupled secondly antibody, and finally developed by addition of a substrate which can be catalyzed by the enzyme, thus forming colored spots. The number of spots produced represents the number of the IFN-γ secreted by the activated CD8^+T cell.

[1] = tested on: human non-small cell lung adenocarcinoma cell line H2087-polypeptide FILDGLYSV; experiment: Polypeptide + Freund's adjuvant vaccine in subcutaneous tumor-modeled NOD/SCID mice; assay type: in vivo; settings: adjuvant+polypeptide 100 μg s.c., 4 immunizations; vs adjuvant alone and adjuvant+wild-type polypeptide groups
Procedure: (§1) After isolated with Ficoll solution from 600 to 900 ml anticoagulant peripheral blood from a healthy volunteer, the collected PBMCs in a concentration of 2×10^7 cells/0.5 ml were intraperitoneally injected into each of 300 NOD SCID mice without immune leakage, so as to reconstruct a human immune system in the NOD SCID mice, with the mice after 4 weeks selected for subsequent inoculation of the human non-small cell lung adenocarcinoma cell line H2087-polypeptide […] obtained in 6.2.
(§2) The human non-small cell lung adenocarcinoma cell line H2087-polypeptide […] (SEQ ID NO:1) obtained in 6.2 was incubated in DMEM medium containing 10% fetal calf serum, 100 U/mL penicillin and 100 U/mL streptomycin in an incubator under 37° C. and 5% CO2, and then the cells were centrifuged at 3000 rpm for collection. The collected cells were washed with sterile physiological saline three times, and then diluted appropriately. To 40 μl tumor cell suspension, 10 μl 0.4% […] was added for staining, subsequently the tumor cell suspension in a concentration of 1×10^8 cells/ml was prepared after counting under microscope. 100 μl of the tumor cell suspension was inoculated into each of the NOD/SCID mice by subcutaneous injection at 4 weeks post immune reconstruction in 6.3, with daily observation of the presence/absence of infection at inoculation sites, the increase/decrease of tumor size (in the case of presence of a tumor), and measurement of the major axis (a) and the minor axis (b) of a tumor by a vernier caliper every 2 or 3 days (where the tumor size=a×b×b/2). After 7 days from inoculation, a tumor in a size of rice grain was touchable at the inoculation site. After that, the subcutaneous tumor-modeled NOD/SCID mice (modeled with H2087-polypeptide […] (SEQ ID NO:1)) were treated with a polypeptide+complete Freund's adjuvant vaccine, a polypeptide+DCs vaccine, a lentivirus-infected DCs vaccine and a DC-CTL vaccine respectively, with the tumor size and mouse survival rate observed and recorded every 2 days.
The subcutaneous tumor-modeled NOD/SCID mice obtained in 6.4 of the example 6 were divided into 8 groups randomly as below, with 6 mice per group.
After 2 weeks, differently-immunized mice in 7 groups received respective same-dosage booster immunizations at 2 week interval for 4 times in total, with incomplete Freund's adjuvant for the latter three immunizations.
The general characteristics (including mental state, activity, response, diet, body weight and tumor growth) of the mice were observed daily, where the major axis (a) and the minor axis (b) of a tumor were measured by a vernier caliper every 2 days for calculation of tumor size according to a formula of a×b×b/2, where the mouse survival rate in a time period is calculated by the following formula: Survival rate=the number of survival mice/(the number of survival mice+the number of dead mice)×100%.

[2] = tested on: human non-small cell lung adenocarcinoma cell line H2087-polypeptide FILDGLYSV; experiment: Lentivirus-infected DCs vaccine in subcutaneous tumor-modeled NOD/SCID mice; assay type: in vivo; settings: DCs infected with lentivirus expressing the polypeptide, intracutaneous, 2 injections; vs wild-type lentivirus DCs
Procedure: as §1, §2
Peripheral blood mononuclear cells (PBMCs) in 100 to 150 mL anticoagulant peripheral blood obtained from a healthy volunteer were isolated with Ficoll solution. After the collected PBMCs were incubated at 37° C. for 2 hours and the non-adherent PBLs were removed, the adherent monocytes were cultured in the presence of recombinant human granulocyte macrophage colony stimulating factor (rhGM-CSF) and recombinant human interleukin-4 (rhIL-4). […] After 24 hours' incubation, the collected cells with lentivirus-containing medium removed were again incubated in a fresh medium containing 50 ng/ml rhIL-4, 100 ng/ml rh GM-CSF, 100 U/ml IFN-γ and 100 U/ml CD40L in an incubator under 37° C. and 5% CO2 for 48 to 72 hours, so as to induce mature DCs, and then the DCs infected with lentivirus were observed under the fluorescence microscope. The collected mature DCs were washed with physiological saline three times and diluted with the physiological saline to a concentration of (4.0±0.5)×10^7 cells/ml for use. The subcutaneous tumor-modeled NOD/SCID mice obtained in 6.4 of the example 6 were randomly divided into seven groups as below, with 6 mice per group.
The vital signs of the mice were observed after administration, and the major axis (a) and the minor axis (b) of a tumor were measured by a vernier caliper every 2 days for calculation of tumor size according to a formula of a×b×b/2, with the weight change and survival rate observed and recorded.

[3] = tested on: human non-small cell lung adenocarcinoma cell line H2087-polypeptide FILDGLYSV; experiment: Polypeptide-specific DC-CTL vaccine in subcutaneous tumor-modeled NOD/SCID mice; assay type: in vivo; settings: CTLs stimulated by DCs loaded with the polypeptide, i.v. 1×10^8 cells/mouse; vs wild-type CTL group
Procedure: as §1
The human non-small cell lung adenocarcinoma cell line H2087-polypeptide […] (SEQ ID NO:1) obtained in 6.2 was incubated in DMEM medium containing 10% fetal calf serum, 100 U/mL penicillin and 100 U/mL streptomycin in an incubator under 37° C. and 5% CO2, and then the cells were centrifuged at 3000 rpm for collection. The collected cells were washed with sterile physiological saline three times, and then diluted appropriately. To 40 μl tumor cell suspension, 10 μl 0.4% […] was added for staining, subsequently the tumor cell suspension in a concentration of 1×10^8 cells/ml was prepared after counting under microscope. 100 μl of the tumor cell suspension was inoculated into each of the NOD/SCID mice by subcutaneous injection at 4 weeks post immune reconstruction in 6.3, with daily observation of the presence/absence of infection at inoculation sites, the increase/decrease of tumor size (in the case of presence of a tumor), and measurement of the major axis (a) and the minor axis (b) of a tumor by a vernier caliper every 2 or 3 days (where the tumor size=a×b×b/2).
The number of T lymphocytes was counted at day 0, 7, 14 and 21 post incubation, for calculation of cell proliferation index (PI), where PI=cell number after proliferation/cell number seeded. The cytotoxic T lymphocytes (CTLs) were harvested at day 21 post incubation, which were suspended in 0.2 ml physiological saline, and then injected intravenously to the subcutaneous tumor-modeled NOD/SCID mice via the tail in an amount of 1×10^8 cells/mouse. The vital signs of the mice were observed after administration, and the major axis (a) and the minor axis (b) of a tumor were measured by a vernier caliper every 2 days for calculation of tumor size.

Sequence | Conclusion (immunogenicity) (CD8^+ T cells) | Number of spots produced by mutant polypeptide or each of its variants (CD8^+ T cells) | Number of spots produced by wild-type polypeptide (CD8^+ T cells) | Ratio of mutant polypeptide to wild-type polypeptide (CD8^+ T cells) | Mouse survival period [1] | Tumor growth [1] | Mouse survival period [2] | Tumor growth [2] | Mouse survival period [3] | Tumor growth [3]
FLLDGLYSL [mutant polypeptide's variant, Leucine at positions 2 and 9] | immunogenic | 279 | 24 | 11.62 | prolonging mouse survival period effectively | inhibiting tumor growth | prolonging mouse survival period effectively | inhibiting tumor growth | prolonging mouse survival period significantly | inhibiting tumor growth
FMLDGLYSV | immunogenic | 335 | 50 | 6.7 | prolonging mouse survival period effectively | inhibiting tumor growth | prolonging mouse survival period effectively | inhibiting tumor growth | prolonging mouse survival period significantly | inhibiting tumor growth
FILDGLYSV [mutant polypeptide from COL21A1, Serine at position 45 mutated into Leucine] | immunogenic | 296 | 29 | 10.2 | prolonging mouse survival period effectively | inhibiting tumor growth | prolonging mouse survival period effectively | inhibiting tumor growth | prolonging mouse survival period significantly | inhibiting tumor growth
FLLDGLYSV [mutant polypeptide's variant, Leucine at position 2] | immunogenic | 301 | 42 | 7.17 | prolonging mouse survival period effectively | inhibiting tumor growth | prolonging mouse survival period effectively | inhibiting tumor growth | prolonging mouse survival period significantly | inhibiting tumor growth
FMLDGLYSL | immunogenic | 319 | 35 | 9.11 | prolonging mouse survival period effectively | inhibiting tumor growth | prolonging mouse survival period effectively | inhibiting tumor growth | prolonging mouse survival period significantly | inhibiting tumor growth
FILDGLYSL [mutant polypeptide's variant, Leucine at position 9] | immunogenic | 313 | 37 | 8.46 | prolonging mouse survival period effectively | inhibiting tumor growth | prolonging mouse survival period effectively | inhibiting tumor growth | prolonging mouse survival period significantly | inhibiting tumor growth
